Data: patent publication US20050267050A1, “Compositions and methods for treating mdma-induced toxicity” (YEDA RESEARCH AND DEVELOPMENT CO. LTD., priority 2002, published 2005)

Key:
Format in all cases: in vivo
[1] = tested on: mGAT4; test: Semi-quantitative RT-PCR of brain mRNA of MDMA-treated mice; conditions: for Increase of mGAT4 mRNA level: MDMA 10 mg/kg i.p., 2 hr, GAPDH for semi-quantitation; for Return of mGAT4 increase to control levels: within 2 days
[2] = tested on: MC2, MG2 and MG4 cDNAs; test: as above; conditions: FIG. 2B, MDMA 10 mg/kg i.p., 2 hr
[3] = tested on: mGAT1; test: as above; conditions: for Increase of mGAT1 expression, estimated by scanning: MDMA 10 mg/kg i.p., 2 hr, GAPDH as standard
[4] = tested on: mGAT2; test: as above
[5] = tested on: mGAT1 protein; test: Western immunoblotting with anti-GAT1 antibodies, MDMA-treated mice; conditions: for GAT1 protein, fold of control: SERT knockout (−/−) mice; for Increase of GAT1 immunoreactivity: wild type mice
Description: (§1) Young adult male C57BI/6J mice (2-3 months old) were injected intraperitoneally with 0.25 ml saline (control) or saline containing MDMA (10 mg/kg). Unless otherwise indicated, mice were sacrificed 2 hr after drug treatment and frontal cortex and/or midbrain were rapidly dissected in ice-cold saline. The dissected brain tissue was frozen on dry ice, 0.5 ml Tri Reagent was added, and samples were stored at −70° C. Serotonin transporter knockout mice (−/−) (Bengel et al., 1998) were used when indicated.
Protein was isolated with Tri Reagent according to the protocol provided by the manufacturer. After precipitation with isopropanol, the protein pellet was washed three times with 0.3M guanidine hydrochloride and 95% ethanol, followed by washing with ethanol, dried, and dissolved in 10 M urea containing 50 mM dithiothreitol (DTT). Samples were kept at room temperature for 1 hr before boiling for 3 minutes, sonicated on ice for 2 minutes, and stored at −20° C. Protein concentration was determined with the micro BCA protein assay reagent kit. Samples of 30 μg protein run on SDS-PAGE (5% stacking gel and 8% or 10% separating gel), with Kaleidoscope pre-stained standard proteins as molecular weight markers. The proteins were transferred to nitrocellulose membranes preincubated for 2 hr in Tris-buffered saline (TBS) with 10% non-fat dry milk and 0.1% Tween 20, and incubated overnight at 4° C. or 2 hr at room temperature with anti-GAT1 antibodies (1:500 in TBS containing 5% non-fat dry milk). Membranes were then washed three times with TBS containing 0.1% Tween 20, incubated for 2 hr at room temperature with the second antibody, horseradish peroxidase coupled to F(ab)2 anti-rabbit IgG, washed four times with the same buffer, and subjected to ECL Western immublotting detection reagents.
It was essential to determine whether the MDMA-induced increase in mGAT1 mRNA was correlated with a similar change in protein level. […] These anti-GAT1 antibodies were also useful to verify MDMA effect on the expression of mGAT1 in the SERT knockout mice (−/−) that behaviorally are nonresponsive to MDMA (Bengel et al., 1998).

[6] = tested on: MG5 cDNA; test: DD-PCR analysis of brain mRNA of MDMA-treated mice; set-up: key: − (lowest); ++ (highest); conditions: MDMA one i.p. injection, 10 mg/kg, 2 hr
Description: as §1
(§2) Frontal cortex or midbrain samples frozen with Tri Reagent were crushed, 1 ml Tri Reagent was added and total RNA was isolated according to the manufacture's protocol. RNA samples were treated with RNase-free DNase I for 30 minutes at 37° C. and RNA quality and yield was verified on 1.2% formaldehyde agarose gel. First-strand cDNA was prepared from 0.5 μg total RNA as template and 0.8 μM (dT)12GC, (dT)12CC or oligo(dT)18 as a primer, using Superscript amplification kit. DD-PCR (differential display-PCR) was carried out in 20 μl total volume, and included 0.8 μM of one of the 3′ primers (dT)12GC, (dT)12CC or (dT)12, the arbitrary 5′ primer 5′-GGACAGCTTC-3′, 2.5 μM dNTP, 2.5 mM MgCl2, 2 μCi α-^33P-[dATP] (3000 Ci/mM), cDNA prepared from 50 ng total RNA, and 2.5 units of Taq DNA polymerase. The DD-PCR reaction was started with 3 minutes incubation at 94° C., followed with 40 cycles of 30 sec at 94° C., 2 minutes at 40° C. and 30 sec at 72° C., and finally 5 minutes at 72° C. Then, 10 μl of the reaction was mixed with 10 μl of 95% formamide containing 0.05% bromophenol blue and 0.05% xylene cyanol, and incubated for 5 minutes at 75° C. An aliquot (6 μl) was analysed on a denatured DNA sequencing gel. The gel was dried and exposed to Phosphoimage Analyzer (Fujix) or to X-ray film. The DNA bands expressed differentially upon MDMA-treatment were identified, cut from the gel, socked in H2O, boiled for 15 minutes and centrifuged (10000 g). Ten μl of the supernatant was used as template to re-amplify the band of interest, with the same primers and PCR conditions described for DD-PCR except that 25 μM dNTP and no isotopes were used. Ten μl of the PCR reaction was run on a 2% agarose gel. The band of the predicted size was excised, purified with DNA extraction kit, and cloned into pGEM-T Easy Vector. Plasmid DNA from successful clones was purified with Plasmid Mini Kit and subjected for sequencing (Biological Services, Weizmann Institute of Science). Sequence data were compared with GeneBank (NCBI).
(§3) Total RNA from frontal cortex (“FC”) and midbrain (“MB”) of saline—(denoted as “−”) and MDMA-treated (denoted as “+”) mice (one i.p. injection, 10 mg/kg, 2 hr) were used for DD-PCR analysis. The random primers used were dT12CC for MC1, dT12GG for MG3, MG4, MG5 and MG6, and dT18 for G1. Different but characteristic cDNA products were obtained with each one of the three primers. […] Some of the altered expression levels are common for both brain regions while others are specific either to the frontal cortex or the midbrain.

[7] = tested on: MC2 cDNA; test: DD-PCR analysis of brain mRNA of MDMA-treated mice; set-up: key: − (lowest); ++ (highest); conditions: MDMA one i.p. injection, 10 mg/kg, 2 hr
Description: as §1, §2, §3

[8] = tested on: MG3 cDNA; test: DD-PCR analysis of brain mRNA of MDMA-treated mice; set-up: key: − (lowest); ++ (highest); conditions: MDMA one i.p. injection, 10 mg/kg, 2 hr
Description: as §1, §2, §3

[9] = tested on: MG2 cDNA; test: DD-PCR analysis of brain mRNA of MDMA-treated mice; set-up: key: − (lowest); ++ (highest); conditions: MDMA one i.p. injection, 10 mg/kg, 2 hr; frontal cortex
Description: as §1, §2, §3

[10] = tested on: G1 cDNA (mGAT1); test: DD-PCR analysis of brain mRNA of MDMA-treated mice; set-up: key to Intensity of G1 cDNA band, MDMA, F. Cortex: − (lowest); ++ (highest); conditions: 2 hr
Description: as §1
Frontal cortex or midbrain samples frozen with Tri Reagent were crushed, 1 ml Tri Reagent was added and total RNA was isolated according to the manufacture's protocol. RNA samples were treated with RNase-free DNase I for 30 minutes at 37° C. and RNA quality and yield was verified on 1.2% formaldehyde agarose gel. First-strand cDNA was prepared from 0.5 μg total RNA as template and 0.8 μM (dT)12GC, (dT)12CC or oligo(dT)18 as a primer, using Superscript amplification kit. DD-PCR (differential display-PCR) was carried out in 20 μl total volume, and included 0.8 μM of one of the 3′ primers (dT)12GC, (dT)12CC or (dT)12, the arbitrary 5′ primer 5′-GGACAGCTTC-3′, 2.5 μM dNTP, 2.5 mM MgCl2, 2 μCi α-^33P-[dATP] (3000 Ci/mM), cDNA prepared from 50 ng total RNA, and 2.5 units of Taq DNA polymerase. […] An aliquot (6 μl) was analysed on a denatured DNA sequencing gel. […]

[11] = tested on: mGAT4; test: Real-time PCR analysis of midbrain RNA of MDMA-treated mice
Description: as §1
(§4) Real-time PCR analysis was performed with the LightCycler System (Roche Molecular Biochemicals) and LightCycler-FastStart DNA Master SYBR Green I, according to the manufacturer instructions. Reactions (in 20 μl) included template cDNA prepared from 0.1-0.5 μg total RNA, 3 mM MgCl2 and 0.25-0.5 μM primers. Buffer, dNTP mixture (with dUTP instead of dTTP), Taq DNA polymerase, and SYBR Green I dye were included in the ‘Hot start’ reaction as recommended. Typical protocol was as follows. Ten minutes at 95° C. followed by 40 cycles of amplification, starting with 15 sec at 95° C., 10 sec at 60° C. and 10 sec at 72° C. The extension period varied with each specific primer, depending on the product length (about 1 sec/25 bp).
(§5) For quantification analysis, 3-5 standards of PCR products with known concentration were amplified under the same cycling conditions, and GAPDH was amplified as an internal control to correct for variations in the amount of cDNA. Real-time PCR products of each assay were also subjected to agarose gel electrophoresis, to further confirm amplification specificity. Quantitation was assessed with LightCycler Data Analysis (LCDA) software by the Fit Points method. Melting curve of the cDNA product was determined by incubation at 95° C. for 0 sec, 15 sec at 65° C. and 0 sec at 95° C., followed by a cooling of 30 sec at 40° C.
(§6) RNA extracted from the midbrain of saline- or MDMA-treated mice was analyzed with the LightCycler System, using specific primers for mGAT1 and mGAT4, along with GAPDH as a control (see Materials and Methods). […] (FIG. 4F).

[12] = tested on: GAPDH; test: as above
Description: as §1, §4, §5, §6

[13] = tested on: mGAT1; test: as above
Description: as §1, §4, §5, §6

[14] = tested on: MC1 cDNA; test: DD-PCR analysis of brain mRNA of MDMA-treated mice; set-up: key to Intensity of MC1 cDNA band, MDMA, F. Cortex / Intensity of MC1 cDNA band, MDMA, MidBrain: − (lowest); ++ (highest); conditions: 2 hr
Description: as §1
as §2, with “Ten μl of the supernatant was used as template to re-amplify the band of interest, with the same primers and PCR conditions described for DD-PCR except that 25 μM dNTP and no isotopes were used. Ten μl of the PCR reaction was run on a 2% agarose gel. The band of the predicted size was excised, purified with DNA extraction kit, and cloned into pGEM-T Easy Vector. Plasmid DNA from successful clones was purified with Plasmid Mini Kit and subjected for sequencing (Biological Services, Weizmann Institute of Science). Sequence data were compared with GeneBank (NCBI).” left out

[15] = MDMA one i.p. injection, 10 mg/kg, frontal cortex
[16] = both frontal cortex and midbrain, MDMA 10 mg/kg i.p.

## CNC(C)Cc1ccc2c(c1)OCO2 (stereo not shown) [MDMA, 3,4-Methylenedioxymethamphetamine]
[1]; frontal cortex
  Increase of mGAT4 mRNA level: 4.6 fold
  Return of mGAT4 increase to control levels: partially
[1]; midbrain
  Increase of mGAT4 mRNA level: 1.7 fold
  Return of mGAT4 increase to control levels: completely
[2]
  MDMA-induced changes of MC2, MG2 and MG4 expression: 1.5-2.2 fold
[3]; frontal cortex
  Increase of mGAT1 expression, estimated by scanning: 1.58 fold
[3]; midbrain
  Increase of mGAT1 expression, estimated by scanning: 1.74 fold
[3]; time course 2 hours-7 days after treatment
  Time for which MDMA effect on mGAT1 expression sustained: 7 days
[4]; MDMA 10 mg/kg i.p., 2 hr, frontal cortex and midbrain
  Effect on mGAT2 expression: insignificant effect
[4]; from 2 hours to 7 days after treatment
  mGAT2 expression in time course: did not change
[5]; frontal cortex
  GAT1 protein, fold of control: 1.3 fold
  Increase of GAT1 immunoreactivity: 2.1 fold
[5]; midbrain
  GAT1 protein, fold of control: 1.0 fold
  Increase of GAT1 immunoreactivity: 2.4 fold
[5]; SERT −/− mice
  Induction of GAT1 protein upon MDMA treatment: no significant induction
[6]; frontal cortex
  Intensity of MG5 cDNA band, MDMA, F. Cortex: −
[6]; midbrain
  Intensity of MG5 cDNA band, MDMA, MidBrain: −
[7]
  Intensity of MC2 cDNA band, MDMA, MidBrain: ++
[8]; frontal cortex
  Intensity of MG3 cDNA band, MDMA, F. Cortex: −
[8]; midbrain
  Intensity of MG3 cDNA band, MDMA, MidBrain: −
[9]
  Intensity of MG2 cDNA band, MDMA, F. Cortex: ++
[10]; [15]
  Intensity of G1 cDNA band, MDMA, F. Cortex: ++
[10]; [16]
  Change of intensity of cDNA G1 in MDMA-treated mice (FIG. 1C): increased
[11]
  Increase in mGAT4/GAPDH ratio compared with controls: 1.52 fold
[12]
  Increase of GAPDH level: 19%
[12]; control 514×10^−5 pmole
  GAPDH level after MDMA treatment (real-time PCR amount): 0.00612 pmol
[13]
  Net increase in mGAT1 levels (corrected for GAPDH): 5.2 fold
[13]; control 3.43×10^−5 pmole
  mGAT1 expression after MDMA treatment (real-time PCR amount): 0.000211 pmol
[14]; [15]
  Intensity of MC1 cDNA band, MDMA, F. Cortex: −
[14]; MDMA one i.p. injection, 10 mg/kg, midbrain
  Intensity of MC1 cDNA band, MDMA, MidBrain: −
[14]; [16]
  Change of cDNA band MC1 in MDMA-treated mice (FIG. 1B): profound decrease
